Reference: patent US20060229324A1, “Quinazolin-4-one derivatives” (priority 2002, published 2006)

How the values were obtained:
[1] = molecular target: human hematopoietic prostaglandin D2 synthase (Homo sapiens, UniProt O60760); assay: Inhibitory activity against spleen-type (hematopoietic) prostaglandin D2 synthase, [14C]PGH2 to PGD2, TLC; format: biochemical; details: for inhibition at 10 µM / inhibition at 30 µM: read-out: Inhibitory Ratio of Prostaglandin D2 (PGD2) Synthase (%)
Method: A buffer solution of 100 mM Tris (hydroxymethyl)aminomethane/HCl buffer (pH8.0) containing glutathione (0.1 mM) and human hematopoietic prostaglandin D2 synthase (adequate quantity) was preincubated at 25° C. for 5 minutes in the presence or absence of a test compound, and then 14C labeled prostaglandin H2 ([14C]PGH2) (10 μM) was added, and the buffer solution was further incubated at 25° C. for one minute. A mixture of ether, methanol, and citric acid was added to the reaction mixture, and the ether layer was developed on silica gel thin-layer chromatography (TLC) (eluent=ether: methanol: acetic acid=90:2:1), and the PGD2 produced was measured by exposure to an imaging plate. The enzyme inhibitory rates of test compounds were calculated assuming the amount of production of PGD2 without the test compound being 100%.

[2] = system: RBL-2H3, a rat basophilic leukemia cell to express hematopoietic prostaglandin D synthase; assay: Prostaglandin D2 production inhibition test using cells (A23187-induced, EIA); format: cell-based; details: RBL-2H3 cells, A23187 2.5 μM; for inhibition at 10 µM: Rattus norvegicus, RBL-2H3, Drug Concentration 10 μM, read-out: Inhibitory Ratio of Prostaglandin D2 (PGD2) Production (%); for Inhibitory Ratio of Prostaglandin D2 (PGD2) Production (%): Drug Concentration 10 μM
Method: RBL-2H3, a rat basophilic leukemia cell to express hematopoietic prostaglandin D synthase, was inoculated in a 24 well plate and incubated overnight. After replacement with a medium in the presence or absence of a test compound, preincubation was carried out at 37° C. for one hour. After washing of the cells with PBS(-), the medium was replaced with a Hepes buffer solution (pH7.4) in the presence or absence of the test compound, and incubation was continued at 37° C. for 15 minutes. Then, calcium ionophore (A23187) at a final concentration of 2.5 μM was added, and incubation was carried out at 37° C. for 15 minutes to induce the production of PGD2. The supernatant of the cells was collected, and the amount of PGD2 flowed out in the supernatant was measured by EIA kit by Cayman. The inhibitory ratio of the production of PGD2 by the test compound was calculated assuming the amount of PGD2 produced by A23187 in the absence of the test compound as being 100%.

Chain of human hematopoietic prostaglandin D2 synthase (O60760 whole entry): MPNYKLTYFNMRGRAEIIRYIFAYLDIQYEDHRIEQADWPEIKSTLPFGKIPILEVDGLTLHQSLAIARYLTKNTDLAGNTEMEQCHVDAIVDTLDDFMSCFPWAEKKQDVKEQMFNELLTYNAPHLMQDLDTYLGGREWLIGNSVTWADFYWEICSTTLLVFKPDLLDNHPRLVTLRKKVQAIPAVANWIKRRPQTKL

SMILES | inhibition at 10 µM ([1]; Drug Concentration 10 μM) [%] | inhibition at 30 µM ([1]; Drug Concentration 30 μM) [%] | also measured
Cc1ccc(-n2nc(C)c(C=Nn3c(C)nc4ccccc4c3=O)c2O)cc1 [Compound 18, 3-{[3-methyl-1-(4-methylphenyl)-5-hydroxypyrazol-4-yl]-methylidene}amino-2-methyl-3,4-dihydroquinazolin-4-one] | 23 | 37 | 
Cc1nn(-c2ccccc2Cl)c(O)c1C=Nn1c(C)nc2ccccc2c1=O [Compound 15, 3-{[1-(2-chlorophenyl)-3-methyl-5-hydroxypyrazol-4-yl]-methylidene}amino-2-methyl-3,4-dihydroquinazolin-4-one] | 20 | 53 | 
Cc1nn(-c2ccccc2)c(O)c1C=NN1C(=O)c2ccccc2NC1CO (stereo not drawn) [Compound 40, 3-[(5-hydroxy-3-methyl-1-phenylpyrazol-4-yl)-methylidene]amino-2-hydroxymethyl-1,2,3,4-tetrahydroquinazolin-4-one] |  |  | inhibition at 10 µM [2]: 74%
CCc1nc2ccccc2c(=O)n1/N=C/c1c(C)nn(-c2ccccc2)c1O [Compound 21] | 13 | 51 | 
CCOC(=O)CCCc1nn(-c2ccccc2)c(O)c1C=Nn1c(C)nc2ccccc2c1=O [Compound 11, 3-({3-[3-(ethoxycarbonyl)propyl]-5-hydroxy-1-phenylpyrazol-4-yl}methylidene)amino-2-methyl-3,4-dihydroquinazolin-4-one] | 45 |  | 
Cc1nn(-c2ccccc2)c(O)c1/C=N/n1c(C)nc2cc(Cl)ccc2c1=O [Compound 36, 7-chloro-3-[(5-hydroxy-3-methyl-1-phenylpyrazol-4-yl)-methylidene]amino-2-methyl-3,4-dihydroquinazolin-4-one] | 39 | 60 | 
COc1cc2nc(C)n(/N=C/c3c(C)nn(-c4ccccc4)c3O)c(=O)c2cc1OC [Compound 38, 6,7-dimethoxy-3-[(5-hydroxy-3-methyl-1-phenylpyrazol-4-yl)-methylidene]amino-2-methyl-3,4-dihydroquinazolin-4-one] | 20 | 51 | 
Cc1nn(-c2ccccc2)c(O)c1/C=N/n1c(C)nc2ccccc2c1=O [Compound 1, 3-[(5-hydroxy-3-methyl-1-phenylpyrazol-4-yl)methylidene]-amino-2-methyl-3,4-dihydroquinazolin-4-one] | 50 | 76 | inhibition at 10 µM [2]: 26%
COCc1nc2ccccc2c(=O)n1N=Cc1c(C)nn(-c2ccccc2)c1O [Compound 29, 3-[(5-hydroxy-3-methyl-1-phenylpyrazol-4-yl)methylidene]-amino-2-methoxymethyl-3,4-dihydroquinazolin-4-one] |  |  | Inhibitory Ratio of Prostaglandin D2 (PGD2) Synthase (%) ([1]; Drug Concentration 10 μM): 20%; Inhibitory Ratio of Prostaglandin D2 (PGD2) Synthase (%) ([1]; Drug Concentration 30 μM): 40%
COc1ccccc1-c1nc2ccccc2c(=O)n1N=Cc1c(C)nn(-c2ccccc2)c1O [Compound 32, 3-[(5-hydroxy-3-methyl-1-phenylpyrazol-4-yl)methylidene]-amino-2-(2-methoxyphenyl)-3,4-dihydroquinazolin-4-one] |  |  | Inhibitory Ratio of Prostaglandin D2 (PGD2) Synthase (%) ([1]; Drug Concentration 10 μM): 12%; Inhibitory Ratio of Prostaglandin D2 (PGD2) Synthase (%) ([1]; Drug Concentration 30 μM): 15%
Cc1nn(-c2ccccc2)c(O)c1/C=N/n1c(C)nc2cccc(C)c2c1=O [Compound 33, 2,5-dimethyl-3-[(5-hydroxy-3-methyl-1-phenylpyrazol-4-yl)methylidene]amino-3,4-dihydroquinazolin-4-one] | 27 | 61 | 
Cc1nn(-c2ccccc2)c(O)c1/C=N/n1c(C)nc2ccc(Br)cc2c1=O [Compound 37, 6-bromo-3-[(5-hydroxy-3-methyl-1-phenylpyrazol-4-yl)-methylidene]amino-2-methyl-3,4-dihydroquinazolin-4-one] | 15 | 56 | inhibition at 10 µM [2]: 32%
Cc1nn(-c2ccccc2)c(O)c1/C=N/n1c(C(C)(C)C)nc2ccccc2c1=O [Compound 25, 2-tert-butyl-3-[(5-hydroxy-3-methyl-1-phenylpyrazol-4-yl)methylidene]amino-3,4-dihydroquinazolin-4-one] |  |  | inhibition at 10 µM [2]: 47%
Cc1nn(C)c(O)c1/C=N/n1c(C)nc2ccccc2c1=O [Compound 14, 3-[(1,3-dimethyl-5-hydroxypyrazol-4-yl)methylidene]amino-2-methyl-3,4-dihydroquinazolin-4-one] | -2 | 27 | 
Cc1nc2ccccc2c(=O)n1N=Cc1c(CCCC(=O)O)nn(-c2ccccc2)c1O [Compound 12, 3-{[3-(3-carboxypropyl)-5-hydroxy-1-phenylpyrazol-4-yl]methylidene}amino-2-methyl-3,4-dihydroquinazolin-4-one] | 46 |  | 
Cc1nn(-c2ccc(Cl)cc2)c(O)c1C=Nn1c(C)nc2ccccc2c1=O [Compound 17, 3-{[1-(4-chlorophenyl)-3-methyl-5-hydroxypyrazol-4-yl]methylidene}amino-2-methyl-3,4-dihydroquinazolin-4-one] | 29 |  | inhibition at 10 µM [2]: 21%
COc1cccc(-c2nc3ccccc3c(=O)n2N=Cc2c(C)nn(-c3ccccc3)c2O)c1 [Compound 31, 3-[(5-hydroxy-3-methyl-1-phenylpyrazol-4-yl)methylidene]-amino-2-(3-methoxyphenyl)-3,4-dihydroquinazolin-4-one] |  |  | Inhibitory Ratio of Prostaglandin D2 (PGD2) Synthase (%) ([1]; Drug Concentration 10 μM): 23%; Inhibitory Ratio of Prostaglandin D2 (PGD2) Synthase (%) ([1]; Drug Concentration 30 μM): 26%
Cc1nn(-c2ccccc2)c(O)c1/C=N/n1c(-c2ccccc2)nc2ccccc2c1=O [Compound 24, 3-[(5-hydroxy-3-methyl-1-phenylpyrazol-4-yl)methylidene]-amino-2-phenyl-3,4-dihydroquinazolin-4-one] |  |  | inhibition at 10 µM [2]: 59%
Cc1nc2ccccc2c(=O)n1N=Cc1c(-c2ccc(C(C)(C)C)cc2)nn(-c2ccccc2)c1O [Compound 45] |  |  | Inhibitory Ratio of Prostaglandin D2 (PGD2) Production (%) [2]: 100%
Cc1nn(-c2ccccc2)c(O)c1/C=N/n1c(C(C)C)nc2ccccc2c1=O [Compound 22, 3-[(5-hydroxy-3-methyl-1-phenylpyrazol-4-yl)methylidene]-amino-2-isopropyl-3,4-dihydroquinazolin-4-one] | 14 | 44 | 
CCc1nn(-c2ccccc2)c(O)c1/C=N/n1c(C)nc2ccccc2c1=O [Compound 6, 3-[(3-ethyl-5-hydroxy-1-phenylpyrazol-4-yl)methylidene]-amino-2-methyl-3,4-dihydroquinazolin-4-one] | 18 |  | 
Cc1nn(-c2ccccc2)c(O)c1/C=N/n1c(C)nc2ccc(Cl)cc2c1=O [Compound 35, 6-chloro-3-[(5-hydroxy-3-methyl-1-phenylpyrazol-4-yl)methylidene]amino-2-methyl-3,4-dihydroquinazolin-4-one] | 15 | 68 | 
Cc1nn(-c2cccc(Cl)c2)c(O)c1C=Nn1c(C)nc2ccccc2c1=O [Compound 16, 3-{[1-(3-chlorophenyl)-3-methyl-5-hydroxypyrazol-4-yl]-methylidene}amino-2-methyl-3,4-dihydroquinazolin-4-one] | 50 | 81 | 
Cc1nn(-c2ccccc2)c(O)c1/C=N/n1c(C)nc2c(C)cccc2c1=O [Compound 34, 2,8-dimethyl-3-[(5-hydroxy-3-methyl-1-phenylpyrazol-4-yl)methylidene]amino-3,4-dihydroquinazolin-4-one] | 71 | 84 | 
COc1ccc(-n2nc(C)c(C=Nn3c(C)nc4ccccc4c3=O)c2O)cc1 [Compound 19, 3-{[3-methyl-1-(4-methoxyphenyl)-5-hydroxypyrazol-4-yl]-methylidene}amino-2-methyl-3,4-dihydroquinazolin-4-one] | 6 | 50 | 
Cc1nc2ccccc2c(=O)n1N=Cc1c(C23CC4CC(CC(C4)C2)C3)nn(-c2ccccc2)c1O [Compound 44] |  |  | Inhibitory Ratio of Prostaglandin D2 (PGD2) Production (%) [2]: 100%
Cc1nn(-c2ccccc2)c(O)c1C=NN1C(=O)c2ccccc2NC1CO (stereo not drawn) [Compound 41, 3-[(5-hydroxy-3-methyl-1-phenylpyrazol-4-yl)-methylidene]amino-2-hydroxymethyl-1,2,3,4-tetrahydroquinazolin-4-one] |  |  | Inhibitory Ratio of Prostaglandin D2 (PGD2) Production (%) [2]: 80%
O=c1c2ccccc2nc(CO)n1/N=C/c1c(C(F)(F)F)nn(-c2ccccc2)c1O [Compound 28] | 19 | 30 | 
Cc1nn(-c2ccccc2)c(O)c1/C=N/n1c(CO)nc2ccccc2c1=O [Compound 26, 3-[(5-hydroxy-3-methyl-1-phenylpyrazol-4-yl)methylidene]-amino-2-hydroxymethyl-3,4-dihydroquinazolin-4-one] | 86 | 71 | 
